Laboratory results from patent US7057052B2, “Heterocyclic quinones as pharmaceutical agents” (Duke University, priority 2002, dated 2006).
Where two headings read alike, the source gives them in different places.

What was measured:
Type in all cases: biochemical
Cdc25A = target: T1, Cdc25A (Homo sapiens, UniProt P30304); experiment: Cdc25A phosphatase inhibition screen at 50 μM; conditions: for inhibition at 50 µM: read-out: Percent Inhibition at 50 uM compound, Cdc25 A
T1 sequence (P30304 1-524): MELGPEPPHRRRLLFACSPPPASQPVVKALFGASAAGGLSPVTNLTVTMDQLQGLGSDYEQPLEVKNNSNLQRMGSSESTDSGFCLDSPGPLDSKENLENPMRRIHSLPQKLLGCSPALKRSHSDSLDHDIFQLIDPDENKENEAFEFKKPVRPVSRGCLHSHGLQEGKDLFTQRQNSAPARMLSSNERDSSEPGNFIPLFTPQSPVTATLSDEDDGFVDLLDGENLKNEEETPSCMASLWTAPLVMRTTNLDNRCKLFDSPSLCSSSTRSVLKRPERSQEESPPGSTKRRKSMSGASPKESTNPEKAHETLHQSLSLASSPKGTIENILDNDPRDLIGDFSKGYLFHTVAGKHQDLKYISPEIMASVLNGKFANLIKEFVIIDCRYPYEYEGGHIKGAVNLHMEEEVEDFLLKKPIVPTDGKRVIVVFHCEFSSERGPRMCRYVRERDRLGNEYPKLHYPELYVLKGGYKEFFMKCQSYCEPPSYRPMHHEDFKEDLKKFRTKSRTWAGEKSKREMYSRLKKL
Description: (§1) Using procedures known to those skilled in the art, the compounds listed in Table 3 were screened against Cdc25A, Cdc25B, and Cdc25C at 50 μM. […] To analyze these effects further, the compounds were then screened against Cdc25B in a 3 pt. IC-50, using 1, 7 and 50 μM. Several of the compounds were also screened with an 8 pt. IC-50 process, using 0.1–10 μM, allowing determination of Hill slopes.

Cdc25B = target: T2, Cdc25B (Homo sapiens, UniProt P30305); experiment: Cdc25B phosphatase inhibition (50 μM screen, 3 pt. and 8 pt. IC-50); conditions: for IC50: Cdc25B; for inhibition at 50 µM: read-out: Percent Inhibition at 50 uM compound, Cdc25 B
T2 sequence (P30305 1-580): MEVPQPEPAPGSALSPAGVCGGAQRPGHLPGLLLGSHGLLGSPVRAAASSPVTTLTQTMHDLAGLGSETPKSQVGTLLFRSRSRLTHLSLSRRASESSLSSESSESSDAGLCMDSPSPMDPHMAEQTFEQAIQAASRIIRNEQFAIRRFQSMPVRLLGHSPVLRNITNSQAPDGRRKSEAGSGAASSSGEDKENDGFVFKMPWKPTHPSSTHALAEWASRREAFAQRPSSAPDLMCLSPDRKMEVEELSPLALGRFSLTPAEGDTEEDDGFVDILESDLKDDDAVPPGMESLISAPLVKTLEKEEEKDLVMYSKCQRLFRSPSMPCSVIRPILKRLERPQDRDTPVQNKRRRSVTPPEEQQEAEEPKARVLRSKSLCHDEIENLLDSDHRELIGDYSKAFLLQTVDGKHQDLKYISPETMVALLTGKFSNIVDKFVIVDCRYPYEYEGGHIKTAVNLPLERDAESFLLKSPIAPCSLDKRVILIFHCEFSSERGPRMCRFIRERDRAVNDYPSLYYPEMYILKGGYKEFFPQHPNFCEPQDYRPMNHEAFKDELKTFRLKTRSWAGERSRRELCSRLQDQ
Description: as §1

Cdc25C = target: T3, Cdc25C (Homo sapiens, UniProt P30307); experiment: Cdc25C phosphatase inhibition screen at 50 μM; conditions: for inhibition at 50 µM: read-out: Percent Inhibition at 50 uM compound, Cdc25 C
T3 sequence (P30307 1-473): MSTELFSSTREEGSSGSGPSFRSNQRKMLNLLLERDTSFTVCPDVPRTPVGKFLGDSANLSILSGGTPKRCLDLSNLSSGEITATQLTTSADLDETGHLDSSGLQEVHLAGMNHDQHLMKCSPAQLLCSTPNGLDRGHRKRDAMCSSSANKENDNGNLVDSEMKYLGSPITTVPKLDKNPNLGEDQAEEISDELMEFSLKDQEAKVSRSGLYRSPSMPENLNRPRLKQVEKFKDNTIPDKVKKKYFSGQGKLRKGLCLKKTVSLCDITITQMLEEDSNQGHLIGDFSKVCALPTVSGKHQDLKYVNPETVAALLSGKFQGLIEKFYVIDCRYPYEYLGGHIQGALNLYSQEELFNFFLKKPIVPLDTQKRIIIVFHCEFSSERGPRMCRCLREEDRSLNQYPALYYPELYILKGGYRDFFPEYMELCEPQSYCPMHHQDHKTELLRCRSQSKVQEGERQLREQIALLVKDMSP
Description: as §1

[1] = 3 pt. IC-50 using 1, 7 and 50 μM, read-out: IC50 (3 pt)
[2] = 8 pt. IC-50 using 0.1–10 μM, read-out: IC50 (8 pt)

Row | Structure (SMILES) | inhibition at 50 µM (Cdc25A) [%] | IC50 (Cdc25B; [1]) [µM] | IC50 (Cdc25B; [2]) [µM] | inhibition at 50 µM (Cdc25B) [%] | inhibition at 50 µM (Cdc25C) [%] | Percent Inhibition at 50 uM compound, Cdc25 A (Cdc25A; 50 uM compound) [%] | Percent Inhibition at 50 uM compound, Cdc25 B (Cdc25B; 50 uM compound) [%] | Percent Inhibition at 50 uM compound, Cdc25 C (Cdc25C; 50 uM compound) [%]
1 | O=C1C=C(O)C(=O)C(c2c[nH]c3ccccc23)=C1O [2A, 2,5-dihydroxy-3(1H-indol-3-yl)-[1,4]-benzoquinone] | 55 | 14.2 | 16.5 | 75 | 69 |  |  | 
2 | Cn1cc(C2=C(O)C(=O)C=C(O)C2=O)c2ccccc21 [2B, 2,5-dihydroxy-3-(1-methyl-1H-indol-3-yl)-[1,4]-benzoquinone] | 63 | 185 |  | 42 | 19 |  |  | 
3 | Cc1[nH]c2ccccc2c1C1=C(O)C(=O)C=C(O)C1=O [2C, 2,5-dihydroxy-3-(2-methyl-1H-indol-3-yl)-[1,4]-benzoquinone] | 35 | 138 |  | 9 | 5 |  |  | 
4 | CCc1[nH]c2ccccc2c1C1=C(O)C(=O)C=C(O)C1=O [2D, 2,5-dihydroxy-3-(2-ethyl-1H-indol-3-yl)-[1,4]-benzoquinone] | 51 | 33.4 |  | 36 | 14 |  |  | 
5 | O=C1C=C(O)C(=O)C(c2c(C3CC3)[nH]c3ccccc23)=C1O [2E, 2,5-dihydroxy-3-(2-cyclopropyl-1H-indol-3-yl)-[1,4]-benzoquinone] | 79 | 2.3 | 24.4 | 32 | 0 |  |  | 
6 | CC(C)c1[nH]c2ccccc2c1C1=C(O)C(=O)C=C(O)C1=O [2F, 2,5-dihydroxy-3-(2-isopropyl-1H-indol-3-yl)-[1,4]-benzoquinone] | 58 | 8.3 |  | 13 | 0 |  |  | 
7 | CC1(c2[nH]c3ccccc3c2C2=C(O)C(=O)C=C(O)C2=O)CC1 [2G, 2,5-dihydroxy-3-[2-(1-methylcycloproyl)-1H-indol-3-yl]-[1,4]-benzoquinone] | 49 | 3.6 |  | 17 | 0 |  |  | 
8 | CC(C)(C)c1[nH]c2ccccc2c1C1=C(O)C(=O)C=C(O)C1=O [2H, 2,5-dihydroxy-3-(2-tert-butyl-1H-indol-3-yl)-[1,4]-benzoquinone] | 31 | 13.9 |  | 11 | 0 |  |  | 
9 | Cc1cccc2c(C3=C(O)C(=O)c4cccc(O)c4C3=O)c[nH]c12 [4E, 2,5-dihydoxy-3-(7-methyl-1H-indol-3-yl)-[1,4]naphthoquinone] |  | 69.3 |  |  |  | 10 | 0 | 0

More lines, main results first:

Row | inhibition at 50 µM (Cdc25A) [%] | IC50 (Cdc25B; [1]) [µM] | IC50 (Cdc25B; [2]) [µM] | inhibition at 50 µM (Cdc25B) [%] | inhibition at 50 µM (Cdc25C) [%] | Structure (SMILES) | Percent Inhibition at 50 uM compound, Cdc25 A (Cdc25A; 50 uM compound) [%] | Percent Inhibition at 50 uM compound, Cdc25 B (Cdc25B; 50 uM compound) [%] | Percent Inhibition at 50 uM compound, Cdc25 C (Cdc25C; 50 uM compound) [%]
10 | 69 | 82.9 |  | 11 | 22 | CC1(c2[nH]c3ccccc3c2C2=C(O)C(=O)C=C(O)C2=O)CCCCC1 [3A, 2,5-dihydroxy-3-[2-(1-methylcyclohexyl)-1H-indol-3-yl]-[1,4]-benzoquinone] |  |  | 
11 | 93 | 22.2 |  | 38 | 18 | O=C1C=C(O)C(=O)C(c2c(-c3ccccc3)[nH]c3ccccc23)=C1O [3B, 2,5-dihydroxy-3-(2-phenyl-1H-indol-3-yl)-[1,4]-benzoquinone] |  |  | 
12 | 40 | 40.3 |  | 0 | 21 | C=CC(C)(C)c1[nH]c2ccccc2c1C1=C(O)C(=O)C=C(O)C1=O [3C, 2,5-dihydroxy-3-[2-(1,1-dimethyl-allyl)-1H-indol-3-yl]-[1,4]-benzoquinone] |  |  | 
13 | 59 | 1.2 | 15.9 | 5 | 0 | O=C1C=C(O)C(=O)C(c2c[nH]c3cccc(F)c23)=C1O [3D, 2,5-dihydroxy-3-(4-fluoro-1H-indol-3-yl)-[1,4]-benzoquinone] |  |  | 
14 | 67 | 3 | 8.4 | 21 | 0 | O=C1C=C(O)C(=O)C(c2c[nH]c3cccc(Cl)c23)=C1O [3E, 2,5-dihydroxy-3-(4-chloro-1H-indol-3-yl)-[1,4]-benzoquinone] |  |  | 
15 | 0 | 3.1 | > 2 | 6 | 54 | O=C1C=C(O)C(=O)C(c2c[nH]c3cccc(Br)c23)=C1O [3F, 2,5-dihydroxy-3-(4-bromo-1H-indol-3-yl)-[1,4]-benzoquinone] |  |  | 
16 | 77 | 7.2 |  | 21 | 19 | COc1cccc2[nH]cc(C3=C(O)C(=O)C=C(O)C3=O)c12 [3G, 2,5-dihydroxy-3-(4-methoxy-1H-indol-3-yl)-[1,4]-benzoquinone] |  |  | 
17 | 87 | 4.6 |  | 0 | 2 | O=C1C=C(O)C(=O)C(c2c[nH]c3cccc(OCc4ccccc4)c23)=C1O [3H, 2,5-dihydroxy-3-(4-benzyloxy-1H-indol-3-yl)-[1,4]-benzoquinone] |  |  | 
18 | 51 | 6 |  | 9 | 28 | Cc1cccc2[nH]cc(C3=C(O)C(=O)C=C(O)C3=O)c12 [4A, 2,5-dihydroxy-3-(4-methyl-1H-indol-3-yl)-[1,4]-benzoquinone] |  |  | 
19 | 64 | 11.7 |  | 32 | 23 | O=C1C=C(O)C(=O)C(c2c[nH]c3ccc(F)cc23)=C1O [4B, 2,5-dihydroxy-3-(5-fluoro-1H-indol-3-yl)-[1,4]-benzoquinone] |  |  | 
20 | 95 | 2.3 |  | 32 | 45 | O=C1C=C(O)C(=O)C(c2c[nH]c3ccc(Cl)cc23)=C1O [4C, 2,5-dihydroxy-3-(5-chloro-1H-indol-3-yl)-[1,4]-benzoquinone] |  |  | 
21 | 96 | 2.4 |  | 55 | 26 | O=C1C=C(O)C(=O)C(c2c[nH]c3ccc(Br)cc23)=C1O [4D, 2,5-dihydroxy-3-(5-bromo-1H-indol-3-yl)-[1,4]-benzoquinone] |  |  | 
22 | 15 | 6 |  | 0 | 0 | COc1ccc2[nH]cc(C3=C(O)C(=O)C=C(O)C3=O)c2c1 [4F, 2,5-dihydroxy-3-(5-methoxy-1H-indol-3-yl)-[1,4]-benzoquinone] |  |  | 
23 | 96 | 1.8 |  | 50 | 26 | O=C1C=C(O)C(=O)C(c2c[nH]c3ccc(OCc4ccccc4)cc23)=C1O [4G, 2,5-dihydroxy-3-(5-benzyloxy-1H-indol-3-yl)-[1,4]-benzoquinone] |  |  | 
24 | 94 | 2.5 |  | 61 | 55 | Cc1ccc2[nH]cc(C3=C(O)C(=O)C=C(O)C3=O)c2c1 [4H, 2,5-dihydroxy-3-(5-methyl-1H-indol-3-yl)-[1,4]-benzoquinone] |  |  | 
